Data taken from patent EP4722201A1, “3-PHENYLISOXAZOLINE-5-CARBOXAMIDE COMPOUND, AND PREPARATION METHOD THEREFOR, HERBICIDAL COMPOSITION THEREOF AND USE THEREOF” (Jiangsu Flag Chemical Industry Co., Ltd, priority 2023, dated 2024).

Key:
Experiment in all cases: Indoor herbicide activity determination, Seed Treatment; pre-emergence (soil spray)
Format in all cases: in vivo
[1] = tested on: Aegilops tauschii; settings: read-out: Herbicidal activities (inhibition rate) Aegilops tauschii; for inhibition at 120 g/ha: 120 g a.i./ha
Method in brief: (§1)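 Weed seeds sown in 7 cm pots of sandy nutrient soil (pH 6.1, 1% organic matter), kept 24 h in a constant-temperature lit room, then soil sprayed by traveling spray tower (flow 390 mL/min). Fresh-weight inhibition % versus untreated controls scored 21 days later.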

[2] = tested on: Alopecurus japonicus
Method in brief: as §1

[3] = tested on: Alopecurus myosuroides
Method in brief: as §1

[4] = tested on: Cyperus iria; settings: read-out: Herbicidal activities (inhibition rate) Cyperus iria; for inhibition at 120 g/ha: 120 g a.i./ha
Method in brief: as §1

[5] = tested on: Digitaria sanguinalis; settings: read-out: Herbicidal activities (inhibition rate) Digitaria sanguinalis; for inhibition at 120 g/ha: 120 g a.i./ha
Method in brief: as §1

[6] = tested on: Eclipta prostrata; settings: read-out: Herbicidal activities (inhibition rate) Eclipta prostrata; for inhibition at 120 g/ha: 120 g a.i./ha
Method in brief: as §1

[7] = tested on: Leptochloa chinensis
Method in brief: as §1

[8] = tested on: Lolium multiflorum; settings: Dosage 240 g a.i./ha
Method in brief: as §1

[9] = tested on: Eleusine indica; settings: Dosage 120 g a.i./ha
Method in brief: as §1

Row | Structure (SMILES) | inhibition at 120 g/ha [1] [%] | Herbicidal activities, Alopecurus japonicus (inhibition rate class) ([2]; Dosage 240 g a.i./ha) | Herbicidal activities, Alopecurus myosuroides (inhibition rate class) ([3]; Dosage 240 g a.i./ha) | inhibition at 120 g/ha [4] [%] | inhibition at 120 g/ha [5] [%] | inhibition at 120 g/ha [6] [%] | Herbicidal activities, Leptochloa chinensis (inhibition rate class) ([7]; Dosage 240 g a.i./ha) | Herbicidal activities, Lolium multiflorum (inhibition rate class) [8] | inhibition at 60 g/ha ([1]; 60 g a.i./ha) [%] | Herbicidal activities, Alopecurus japonicus (inhibition rate class) ([2]; Dosage 120 g a.i./ha) | Herbicidal activities, Alopecurus myosuroides (inhibition rate class) ([3]; Dosage 120 g a.i./ha) | inhibition at 60 g/ha ([4]; 60 g a.i./ha) [%] | inhibition at 60 g/ha ([5]; 60 g a.i./ha) [%] | inhibition at 60 g/ha ([6]; 60 g a.i./ha) [%] | Herbicidal activities, Eleusine indica (inhibition rate class) [9] | Herbicidal activities, Leptochloa chinensis (inhibition rate class) ([7]; Dosage 120 g a.i./ha)
1 | CC1(C(=O)N[C@H]2CO[C@@H](C(=O)O)C2)CC(c2cc(F)cc(OC(F)(F)F)c2)=NO1 (mixture of isomers) [I-378] | 80 to 100 | A (A indicates that the inhibition rate was greater than or equal to 80% to 100%) | A (A indicates that the inhibition rate was greater than or equal to 80% to 100%) | 60 to 80 | 80 to 100 | 40 to 60 | A (A indicates that the inhibition rate was greater than or equal to 80% to 100%) | A (A indicates that the inhibition rate was greater than or equal to 80% to 100%) | – | – | – | – | – | – | – | –
2 | COC(=O)C1CC(NC(=O)C2(C(F)(F)F)CC(c3cc(F)cc(C(F)(F)F)c3)=NO2)CO1 (stereo not shown) [I-392] | 80 to 100 | A (A indicates that the inhibition rate was greater than or equal to 80% to 100%) | A (A indicates that the inhibition rate was greater than or equal to 80% to 100%) | 60 to 80 | 80 to 100 | 60 to 80 | A (A indicates that the inhibition rate was greater than or equal to 80% to 100%) | A (A indicates that the inhibition rate was greater than or equal to 80% to 100%) | – | – | – | – | – | – | – | –
3 | CC1(C(=O)NC2COC(C(=O)O)C2)CC(c2cc(Cl)cc(OC(F)F)c2)=NO1 (stereo not shown) [I-388] | 80 to 100 | A (A indicates that the inhibition rate was greater than or equal to 80% to 100%) | A (A indicates that the inhibition rate was greater than or equal to 80% to 100%) | 60 to 80 | 60 to 80 | 60 to 80 | A (A indicates that the inhibition rate was greater than or equal to 80% to 100%) | B (B indicates that the inhibition rate was greater than or equal to 60% to less than 80%) | – | – | – | – | – | – | – | –
4 | COC(=O)C1CC(NC(=O)C2(C)CC(c3cc(Cl)cc(OC(F)F)c3)=NO2)CO1 (stereo not shown) [I-390] | 80 to 100 | A (A indicates that the inhibition rate was greater than or equal to 80% to 100%) | A (A indicates that the inhibition rate was greater than or equal to 80% to 100%) | 60 to 80 | 60 to 80 | 60 to 80 | A (A indicates that the inhibition rate was greater than or equal to 80% to 100%) | B (B indicates that the inhibition rate was greater than or equal to 60% to less than 80%) | – | – | – | – | – | – | – | –
5 | O=C(O)C1CC(NC(=O)C2(C(F)(F)F)CC(c3cc(Cl)cc(OC(F)F)c3)=NO2)CO1 (stereo not shown) [I-395] | 60 to 80 | – | A (A indicates that the inhibition rate was greater than or equal to 80% to 100%) | 60 to 80 | 60 to 80 | 60 to 80 | A (A indicates that the inhibition rate was greater than or equal to 80% to 100%) | A (A indicates that the inhibition rate was greater than or equal to 80% to 100%) | – | – | – | – | – | – | – | –
6 | COC(=O)C1CC(NC(=O)C2(C(F)(F)F)CC(c3cc(Cl)cc(OC(F)(F)F)c3)=NO2)CO1 (stereo not shown) [I-400] | 80 to 100 | – | A (A indicates that the inhibition rate was greater than or equal to 80% to 100%) | 60 to 80 | 80 to 100 | 80 to 100 | A (A indicates that the inhibition rate was greater than or equal to 80% to 100%) | – | – | – | – | – | – | – | – | –
7 | COC(=O)[C@H]1C[C@@H](NC(=O)C2(C)CC(c3cc(F)cc(C(F)(F)F)c3)=NO2)CO1 (mixture of isomers) [I-377] | 80 to 100 | A (A indicates that the inhibition rate was greater than or equal to 80% to 100%) | A (A indicates that the inhibition rate was greater than or equal to 80% to 100%) | 60 to 80 | 80 to 100 | 40 to 60 | A (A indicates that the inhibition rate was greater than or equal to 80% to 100%) | A (A indicates that the inhibition rate was greater than or equal to 80% to 100%) | – | – | – | – | – | – | – | –
8 | COC(=O)C1CC(NC(=O)C2(C(F)(F)F)CC(c3cc(Cl)cc(C(F)(F)F)c3)=NO2)CO1 (stereo not shown) [I-399] | 80 to 100 | B (B indicates that the inhibition rate was greater than or equal to 60% to less than 80%) | A (A indicates that the inhibition rate was greater than or equal to 80% to 100%) | 60 to 80 | 80 to 100 | 60 to 80 | A (A indicates that the inhibition rate was greater than or equal to 80% to 100%) | B (B indicates that the inhibition rate was greater than or equal to 60% to less than 80%) | – | – | – | – | – | – | – | –
9 | COC(=O)C1CC(NC(=O)C2(C(F)(F)F)CC(c3cc(F)cc(OC(F)F)c3)=NO2)CO1 (stereo not shown) [I-394] | 80 to 100 | A (A indicates that the inhibition rate was greater than or equal to 80% to 100%) | A (A indicates that the inhibition rate was greater than or equal to 80% to 100%) | – | 60 to 80 | 60 to 80 | A (A indicates that the inhibition rate was greater than or equal to 80% to 100%) | A (A indicates that the inhibition rate was greater than or equal to 80% to 100%) | – | – | – | – | – | – | – | –
10 | COC(=O)C1CC(NC(=O)C2(C(F)(F)F)CC(c3cc(F)cc(OC(F)(F)F)c3)=NO2)CO1 (stereo not shown) [I-393] | 80 to 100 | A (A indicates that the inhibition rate was greater than or equal to 80% to 100%) | A (A indicates that the inhibition rate was greater than or equal to 80% to 100%) | 60 to 80 | 60 to 80 | 60 to 80 | A (A indicates that the inhibition rate was greater than or equal to 80% to 100%) | A (A indicates that the inhibition rate was greater than or equal to 80% to 100%) | – | – | – | – | – | – | – | –
11 | COC(=O)C1CC(NC(=O)C2(C)CC(c3cc(Cl)cc(C(F)(F)F)c3)=NO2)CO1 (stereo not shown) [I-386] | 80 to 100 | A (A indicates that the inhibition rate was greater than or equal to 80% to 100%) | A (A indicates that the inhibition rate was greater than or equal to 80% to 100%) | 60 to 80 | 80 to 100 | 40 to 60 | A (A indicates that the inhibition rate was greater than or equal to 80% to 100%) | A (A indicates that the inhibition rate was greater than or equal to 80% to 100%) | – | – | – | – | – | – | – | –
12 | COC(=O)C1CC(NC(=O)C2(C)CC(c3cc(Cl)cc(OC(F)(F)F)c3)=NO2)CO1 (stereo not shown) [I-387] | 80 to 100 | A (A indicates that the inhibition rate was greater than or equal to 80% to 100%) | A (A indicates that the inhibition rate was greater than or equal to 80% to 100%) | 60 to 80 | 80 to 100 | 60 to 80 | A (A indicates that the inhibition rate was greater than or equal to 80% to 100%) | A (A indicates that the inhibition rate was greater than or equal to 80% to 100%) | – | – | – | – | – | – | – | –
13 | C#CCOC(=O)[C@H]1C[C@@H](NC(=O)[C@@]2(C(F)(F)F)CC(c3cc(F)cc(OC(F)(F)F)c3)=NO2)C1 [I-255] | – | – | – | – | – | – | – | – | 80 to 100 | A (A indicates that the inhibition rate was greater than or equal to 80% to 100%) | A (A indicates that the inhibition rate was greater than or equal to 80% to 100%) | 80 to 100 | 60 to 80 | 60 to 80 | A (A indicates that the inhibition rate was greater than or equal to 80% to 100%) | A (A indicates that the inhibition rate was greater than or equal to 80% to 100%)
